Reference: patent US20100240093A1, “Isolated Staphylococcus Pseudolugdunensis” (priority 2006, published 2010)

What was measured:
isolate B006 = test: Disc diffusion antimicrobial susceptibility testing; assay type: cell-based, Staphylococcus pseudolugdunensis; further: key: R—resistant; S—susceptible
Method: (§1) In vitro antimicrobial susceptibility testing for amoxicillin-clavulanate, cefazolin, clindamycin, erythromycin, gentamicin, levofloxacin, minocycline, penicillin, rifampin, trimethoprim/sulfamethoxazole (SXT) and vancomycin was determined by a disc diffusion method in accordance with Clinical and Laboratory Standards Institute guidelines (CLSI Performance standards for antimicrobial disk susceptibility tests; Approved standard, 9th ed. (2006) Clinical and Laboratory Standards Institute, Wayne, Pa.).

isolate B060 = test: as above; assay type: cell-based, Staphylococcus pseudolugdunensis; further: key: R—resistant; S—susceptible
Method: as §1

isolate B230 = test: as above; assay type: cell-based, Staphylococcus pseudolugdunensis; further: key: R—resistant; S—susceptible
Method: as §1

isolate B277 = test: as above; assay type: cell-based, Staphylococcus pseudolugdunensis; conditions: isolate 8277; further: key: R—resistant; S—susceptible
Method: as §1

isolate B287 = test: as above; assay type: cell-based, Staphylococcus pseudolugdunensis; conditions: isolate 8287; further: key: R—resistant; S—susceptible
Method: as §1

isolate B292 = test: as above; assay type: cell-based, Staphylococcus pseudolugdunensis; conditions: isolate 13292; further: key: R—resistant; S—susceptible
Method: as §1

isolate B333 = test: as above; assay type: cell-based, Staphylococcus pseudolugdunensis; further: key: R—resistant; S—susceptible
Method: as §1

isolate B334 = test: as above; assay type: cell-based, Staphylococcus pseudolugdunensis; further: key: R—resistant; S—susceptible
Method: as §1

isolate B354 = test: as above; assay type: cell-based, Staphylococcus pseudolugdunensis; further: key: R—resistant; S—susceptible
Method: as §1

isolate B715 = test: as above; assay type: cell-based, Staphylococcus pseudolugdunensis; conditions: isolate 13715; further: key: R—resistant; S—susceptible
Method: as §1

isolate B739 = test: as above; assay type: cell-based, Staphylococcus pseudolugdunensis; conditions: isolate 8739; further: key: R—resistant; S—susceptible
Method: as §1

isolate B837 = test: as above; assay type: cell-based, Staphylococcus pseudolugdunensis; further: key: R—resistant; S—susceptible
Method: as §1

12 isolates = test: Disc diffusion antimicrobial susceptibility testing, all isolates; assay type: cell-based, Staphylococcus pseudolugdunensis
Method: as §1

isolates B230 and B333 = test: Clinical case of intravenous line-associated infection; assay type: in vivo, human; conditions: patient with intravenous line-associated infection, line removed
Method: The relatedness of these 12 ODC/PYR-positive CoNS was further analyzed by pulsed field gel electrophoresis (PFGE). All isolates were unrelated, except for two isolates (B230 and B333) which were recovered from the same patient over a 16-day interval. […] Vancomycin was administered and the line removed.
Medical records of the 11 patients from whom these isolates were recovered were reviewed and the demographic and clinical information are listed in Table 3. Two isolates (B230 and B333), which were recovered from the same patient over a 16-day interval, were considered to be the pathogen that caused an intravenous line-associated infection. The remaining 10 isolates were considered to be contaminants. Antibiotics, including vancomycin, were administered in 6 (54.5%) cases, including one case in which the two isolates were considered pathogens and in 5 of 10 cases in which the isolates were considered contaminants (Table 3).

| Molecule | Antimicrobial susceptibility (isolate B006) | Antimicrobial susceptibility (isolate B060) | Antimicrobial susceptibility (isolate B230) | Antimicrobial susceptibility (isolate B277) | Antimicrobial susceptibility (isolate B287) | Antimicrobial susceptibility (isolate B292) | Antimicrobial susceptibility (isolate B333) | Antimicrobial susceptibility (isolate B334) | Antimicrobial susceptibility (isolate B354) | Antimicrobial susceptibility (isolate B715) | Antimicrobial susceptibility (isolate B739) | Antimicrobial susceptibility (isolate B837) | Susceptibility of all 12 isolates (12 isolates) | Patient outcome (isolates B230 and B333) |
| --- | --- | --- | --- | --- | --- | --- | --- | --- | --- | --- | --- | --- | --- | --- |
| Cc1nnc(SCC2=C(C(=O)O)N3C(=O)[C@@H](NC(=O)Cn4cnnn4)[C@H]3SC2)s1 [Cefazolin] | R | S | S | S | S | S | S | R | S | R | R | R |  |  |
| CCC[C@@H]1C[C@@H](C(=O)N[C@@H]([C@H]2O[C@H](SC)[C@H](O)[C@@H](O)[C@H]2O)[C@H](C)Cl)N(C)C1 [Clindamycin] | S | S | S | S | S | S | R | R | S | S | R | R |  |  |
| CC[C@H]1OC(=O)[C@H](C)[C@@H](O[C@H]2C[C@@](C)(OC)[C@@H](O)[C@H](C)O2)[C@H](C)[C@@H](O[C@@H]2O[C@H](C)C[C@H](N(C)C)[C@H]2O)[C@](C)(O)C[C@@H](C)C(=O)[C@H](C)[C@@H](O)[C@]1(C)O [Erythromycin] | R | S | S | S | S | S | R | R | S | S | R | R |  |  |
| C[C@H]1COc2c(N3CCN(C)CC3)c(F)cc3c(=O)c(C(=O)O)cn1c23 [Levofloxacin] | S | S | R | S | R | S | S | R | S | R | S | S |  |  |
| COc1cccc(OC)c1C(=O)N[C@@H]1C(=O)N2[C@@H]1SC(C)(C)[C@@H]2C(=O)O [Methicillin] | R | S | S | S | S | S | S | R | S | R | R | R |  |  |
| CN(C)c1ccc(O)c2c1C[C@H]1C[C@H]3[C@H](N(C)C)C(O)=C(C(N)=O)C(=O)[C@@]3(O)C(O)=C1C2=O [Minocycline] | S | S | S | S | S | S | S | S | S | S | S | S |  |  |
| CO[C@H]1/C=C/O[C@@]2(C)Oc3c(C)c(O)c4c(O)c(c(/C=N/N5CCN(C)CC5)c(O)c4c3C2=O)NC(=O)/C(C)=C\C=C\[C@H](C)[C@H](O)[C@@H](C)[C@@H](O)[C@@H](C)[C@H](OC(C)=O)[C@@H]1C [Rifampin] | S | S | S | S | S | S | S | S | S | S | S | S | susceptible |  |
| CN[C@H](CC(C)C)C(=O)N[C@H]1C(=O)N[C@@H](CC(N)=O)C(=O)N[C@H]2C(=O)N[C@H]3C(=O)N[C@H](C(=O)N[C@H](C(=O)O)c4cc(O)cc(O)c4-c4cc3ccc4O)[C@H](O)c3ccc(c(Cl)c3)Oc3cc2cc(c3O[C@@H]2O[C@H](CO)[C@@H](O)[C@H](O)[C@H]2O[C@H]2C[C@](C)(N)[C@H](O)[C@H](C)O2)Oc2ccc(cc2Cl)[C@H]1O [Vancomycin] | S | S | S | S | S | S | S | S | S | S | S | S | susceptible | recovered fully |
| Amoxicillin-clavulanate | R | S | S | S | S | S | S | R | S | R | R | R |  |  |
| Gentamicin | S | S | S | S | S | S | S | S | S | S | S | S | susceptible |  |
| Penicillin | R | R | R | S | R | R | R | R | S | R | R | R |  |  |
| Trimethoprim/sulfamethoxazole | S | R | R | S | R | S | S | R | S | R | S | S |  |  |
